Experimental data from article PMC8105289 (European journal of medicinal chemistry, 2021).
Marks after values point to notes of the source that are not given here.

Key:
potentiometric titration = details: not told
[1] = pKa by potentiometric titration
[2] = logP / logD7.4 by potentiometric titration; details: for logD: n-octanol/aqueous buffer, pH 7.4; for logP: n-octanol/water
[3] = Parallel artificial membrane permeability assay; details: for Papp: PAMPA; for PAMPA logPapp: log of the apparent permeability coefficient; for PAMPA % retention (membrane retention): Corning Gentest pre-coated PAMPA plate, HPLC-UV
shake-flask = details: not told
[4] = logD7.4 by shake-flask method; details: for logD: n-octanol/aqueous buffer, pH 7.4
[5] = ionic strength adjusted water (0.15 M KCl), pKa units higher than the pKa value of 9
[6] = ionic strength adjusted water (0.15 M KCl), pKa, potentiometric titration, Sirius T3, 0.15 M KCl
[7] = potentiometric titration, Sirius T3, 0.15 M KCl
[8] = potentiometric titration, Sirius T3

Compound | log partition n-octanol / aqueous buffer pH 7.4 (potentiometric titration) [log10 concentration ratio] | log partition n-octanol / water (0.15 M KCl) (potentiometric titration) [log10 concentration ratio] | logD [2] | logP [2] | Papp [3] [×10⁻⁶ cm/s] | PAMPA logPapp [3] | log partition n-octanol / aqueous buffer pH 7.4 (shake-flask) [log10 concentration ratio] | logD [4] | further results
CS(=O)(=O)NC1(CCc2ccccc2)CS(=O)(=O)C1 [Compound 24, N-(1,1-Dioxido-3-phenethylthietan-3-yl)methanesulfonamide] | 1.03 | 1.03±0.01 | 1.03 | 1.03 ± 0.01 | 3.66 | −5.4 | – | – | pKa [1, 5]: > 5
CC(=O)NC1(CCc2ccccc2)CS(=O)(=O)C1 [Compound 14, N-(1,1-Dioxido-3-phenethylthietan-3-yl)acetamide] | – | – | – | – | 2.11 | −5.68 | 1.18 | 1.18 | pKa [1, 6]: > 12
CN(C)S(=O)(=O)NC1(CCc2ccccc2)CSC1 [Compound 20, N,N-Dimethyl-[3-(2-phenylethyl)thietan-3-yl]sulfamoyl-amine] | – | – | – | – | 11.4 | −4.9 | 2.83 | 2.83 | PAMPA % retention (membrane retention) [3]: 0.373%
CC1(NS(=O)(=O)CCc2ccccc2)COC1 [Compound 13, N-(3-Methyloxetan-3-yl)-2-phenylethane-1-sulfonamide] | 1.58 | 1.58±0.06 | 1.58 | 1.58 ± 0.06 | 6.79 | −5.17 | – | – | ΔlogPcyclohexane (ΔlogP; logPoctanol-water − logPcyclohexane-water): 1.87 ± 0.04; ΔlogPheptane (ΔlogP; logPoctanol-water − logPheptane-water): 1.60 ± 0.05; ΔlogPtoluene (ΔlogP; logPoctanol-water − logPtoluene-water): 0.43 ± 0.04
CN(C)S(=O)(=O)NC1(CCc2ccccc2)COC1 [Compound 17, N,N-Dimethyl-[3-(2-phenylethyl)oxetane-3-yl]sulfamoyl-amine] | – | – | – | – | 10.2 | −4.99 | 1.96 | 1.96 | –
CS(=O)(=O)N[C@]1(CCc2ccccc2)C[S@+]([O-])C1 [Compound 21, cis-N-(1-Oxido-3-phenethylthietan-3-yl)methanesulfonamide] | – | – | – | – | – | – | – | – | pKa units higher than the pKa value of 9 [1]: > 5; pKa [1, 7]: 9.87±0.01; logP [2, 8]: 0.88±0.02
CN(C)S(=O)(=O)NC1(CCc2ccccc2)CS(=O)(=O)C1 [Compound 26, 3-[(Dimethylsulfamoyl)amino]-3-(2-phenylethyl)-1lambda6-thietane-1,1-dione] | 1.82 | 1.83±0.05 | 1.82 | 1.83 ± 0.05 | 4.43 | −5.35 | – | – | PAMPA % retention (membrane retention) [3]: 0.105%
CS(=O)(=O)NC1(CCc2ccccc2)CS(=O)C1 (stereo not drawn) | 0.87 | 0.88±0.02 | – | – | – | – | – | – | –
CN(C)S(=O)(=O)NC1(CCc2ccccc2)CS(=O)C1 (stereo not drawn) | – | – | – | – | – | – | 1.45 | – | –
CS(=O)(=O)NC1(CCc2ccccc2)CSC1 [Compound 18, N-(3-Phenethylthietan-3-yl)methanesulfonamide] | – | – | – | – | 14.6 | −4.8 | 2.44 | 2.44 | pKa [1, 5]: > 5

Continued, in another order:

log partition n-octanol / aqueous buffer pH 7.4 (potentiometric titration) [log10 concentration ratio] | log partition n-octanol / water (0.15 M KCl) (potentiometric titration) [log10 concentration ratio] | logD [2] | logP [2] | Papp [3] [×10⁻⁶ cm/s] | PAMPA logPapp [3] | log partition n-octanol / aqueous buffer pH 7.4 (shake-flask) [log10 concentration ratio] | logD [4] | Compound | further results
– | – | – | – | – | – | 1.89 | 1.89 | O=S1(=O)CC(CCc2ccccc2)(NS(=O)(=O)c2ccccc2)C1 [Compound 25, N-(1,1-Dioxido-3-phenethylthietan-3-yl)benzenesulfonamide] | –
– | – | – | – | – | – | 2.96 | 2.96 | O=S(=O)(NC1(CCc2ccccc2)CSC1)c1ccccc1 [Compound 19, N-(3-Phenethylthietan-3-yl)benzenesulfonamide] | pKa [1, 6]: > 12
– | – | – | – | – | −5.47 | – | – | CN(C)S(=O)(=O)N[C@]1(CCc2ccccc2)C[S@+]([O-])C1 [Compound 23, cis-3-[(Dimethylsulfamoyl)amino]-3-(2-phenylethyl)-1lambda4-thietan-1-one] | logD7.4 ([4]; n-octanol/aqueous buffer pH 7.4, shake-flask assay run by Analiza): 1.45^†; pKa [1, 7]: 10.33±0.02
0.06 | 1.16±0.03 | 0.06 | 1.16 ± 0.03 | 2.42 | −5.62 | – | – | CS(=O)(=O)Nc1cn(-c2ccccc2)nn1 [Compound 30, N-(1-Phenyl-1H-1,2,3-triazol-4-yl)methanesulfonamide] | –
0.99 | 1.76±0.03 | 0.99 | 1.76 ± 0.03 | 5.79 | −5.24 | – | – | O=S(=O)(Nc1cc(-c2ccccc2)on1)c1ccccc1 [Compound 28, N-(5-Phenylisoxazol-3-yl)benzenesulfonamide] | –
0.69 | 1.72±0.01 | – | – | – | −5.42 | – | – | CN(C)S(=O)(=O)Nc1cn(-c2ccccc2)nn1 [Compound 32, N-(1-Phenyl-1H-1,2,3-triazol-4-yl)-N,N-dimethylaminesulfonamide] | pKa [1, 7]: 6.42±0.01; logP [2, 8]: 1.72±0.01
−0.42 | 0.58±0.02 | -0.42 | 0.58 ± 0.02 | 1.16 | −5.94 | – | – | CS(=O)(=O)Nc1cc(-c2ccccc2)on1 [Compound 27, N-(5-Phenylisoxazol-3-yl)methanesulfonamide] | –
1.06 | 2.55±0.04 | 1.06 | 2.55 ± 0.04 | 4.09 | −5.39 | – | – | O=S(=O)(Nc1cn(-c2ccccc2)nn1)c1ccccc1 [Compound 31, N-(1-Phenyl-1H-1,2,3-triazol-4-yl)benzenesulfonamide] | –
0.42 | 0.85±0.01 | – | – | – | – | – | – | CN(C)S(=O)(=O)Nc1cc(-c2ccccc2)on1 [Compound 29, N-(5-Phenylisoxazol-3-yl)-N,N-dimethylaminesulfonamide] | pKa [1, 7]: 5.62±0.02; logP [2, 8]: 0.85±0.01; PAMPA % retention (membrane retention) [3]: 0.131%
– | – | – | – | 7.06 | −5.2 | 2.76 | 2.76 | O=S(=O)(NC1(CCc2ccccc2)COC1)c1ccccc1 [Compound 16, N-(3-Phenethyloxetan-3-yl)benzenesulfonamide] | PAMPA % retention (membrane retention) [3]: 0.260%
– | – | – | – | – | – | 0.76 | – | O=S1CC(CCc2ccccc2)(NS(=O)(=O)c2ccccc2)C1 (stereo not drawn) | –
